The compounds below were run against T1, ERα protein (HiBiT-tagged) in ESR1_HiBiT KI MCF7 cells (Homo sapiens, UniProt P03372) (assay: Nano Glo HiBiT Lytic Degradation Assay). Settings: 6 hours with compound, 14-point dose response 1:3, bell-shape curve fit, half-maximal effect of first Hill model, read-out: MCF7 ESR1 HiBiT - (DC50).
T1 sequence (P03372 1-595): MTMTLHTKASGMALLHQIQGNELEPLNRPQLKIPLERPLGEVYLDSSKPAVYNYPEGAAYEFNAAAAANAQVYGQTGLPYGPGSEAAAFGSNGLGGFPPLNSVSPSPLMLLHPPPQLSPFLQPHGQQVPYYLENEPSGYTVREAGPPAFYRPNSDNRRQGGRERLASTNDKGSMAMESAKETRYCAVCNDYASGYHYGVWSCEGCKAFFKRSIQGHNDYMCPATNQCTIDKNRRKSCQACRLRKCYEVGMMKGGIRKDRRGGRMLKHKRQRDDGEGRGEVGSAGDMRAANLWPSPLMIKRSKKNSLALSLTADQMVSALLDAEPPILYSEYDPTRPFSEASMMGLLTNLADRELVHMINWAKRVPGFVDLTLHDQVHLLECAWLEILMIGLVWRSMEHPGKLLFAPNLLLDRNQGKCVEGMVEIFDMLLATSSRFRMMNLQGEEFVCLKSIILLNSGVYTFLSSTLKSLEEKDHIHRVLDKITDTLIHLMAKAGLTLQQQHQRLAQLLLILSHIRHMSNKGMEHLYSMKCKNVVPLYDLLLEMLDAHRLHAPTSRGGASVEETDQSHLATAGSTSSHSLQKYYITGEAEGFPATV
Format: cell-based
Outline: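 ESR1_HiBiT knock-in MCF7 cells were seeded 24 h before treatment, then exposed to compounds for 6 h at 37° C (14-point 1:3 curves, 10 mM top stock, 0.1% DMSO final, duplicates). HiBiT-ERα was read by lytic LgBiT luminescence, background-subtracted and normalized to DMSO. DC50 was taken from the half-maximal point of the first Hill component of a bell-shaped fit.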

Row | SMILES | DC50 [nM]
1 | O=C1CC[C@H](N2Cc3cc(N4CCN(CC5CCN(c6cc(F)c(C7=C(c8ccccc8)CCc8cc(O)ccc87)c(F)c6)CC5)CC4)ccc3C2=O)C(=O)N1 [Compound I-10, (S)-3-(5-(4-((1-(3,5-difluoro-4-(6-hydroxy-2-phenyl-3,4-dihydronaphthalen-1-yl)phenyl)piperidin-4-yl)methyl)piperazin-1-yl)-1-oxoisoindolin-2-yl)piperidine-2,6-dione] | 16
2 | O=C1CCC(c2ccc(N3CCN(CC4CCN(c5ccc([C@H]6c7ccc(O)cc7CC[C@H]6c6ccccc6)cc5)CC4)CC3)cc2)C(=O)N1 (stereo partly drawn) [Compound I-11, 3-[4-[4-[[1-[4-[(1S,2R)-6-hydroxy-2-phenyl-tetralin-1-yl]phenyl]-4-piperidyl]methyl]piperazin-1-yl]phenyl]piperidine-2,6-dione] | ≥ 10000
3 | O=C1CC[C@H](N2Cc3cc(N4CCN(CC5CCN(c6ccc([C@H]7c8ccc(O)cc8C(F)(F)C[C@H]7c7ccccc7)cc6)CC5)CC4)ccc3C2=O)C(=O)N1 [Compound I-13] | 13
4 | Cn1cc([C@H]2CCc3cc(O)ccc3[C@H]2c2ccc(N3CCC(CN4CCN(c5ccc6c(c5)CN([C@H]5CCC(=O)NC5=O)C6=O)CC4)CC3)cc2)cn1 [Compound I-30] | 2
5 | Cn1ccc([C@@H]2CCc3cc(O)ccc3[C@@H]2c2ccc(N3CCC(CN4CCN(c5ccc6c(c5)CN([C@H]5CCC(=O)NC5=O)C6=O)CC4)CC3)cc2)n1 [Compound I-31] | ≥ 10000
6 | O=C1CC[C@H](N2Cc3cc(N4CCN(CC5CCN(c6ccc([C@@H]7c8ccc(O)cc8CC[C@@H]7C7CCOCC7)cc6)CC5)CC4)ccc3C2=O)C(=O)N1 [Compound I-32, (3S)-3-[5-[4-[[1-[4-[(1R,2R)-6-hydroxy-2-tetrahydropyran-4-yl-tetralin-1-yl]phenyl]-4-piperidyl]methyl]piperazin-1-yl]-1-oxo-isoindolin-2-yl]piperidine-2,6-dione] | 0.45
7 | O=C1CC[C@H](N2Cc3cc(N4CCN(CC5CCN(c6ccc([C@H]7c8ccc(O)cc8CC[C@H]7C7CCOCC7)cc6)CC5)CC4)ccc3C2=O)C(=O)N1 [Compound I-33, (3S)-3-[5-[4-[[1-[4-[(1S,2S)-6-hydroxy-2-tetrahydropyran-4-yl-tetralin-1-yl]phenyl]-4-piperidyl]methyl]piperazin-1-yl]-1-oxo-isoindolin-2-yl]piperidine-2,6-dione] | 173
8 | O=C1CC[C@H](N2Cc3cc(N4CCN(CC5CCN(c6ccc([C@@H]7c8ccc(O)cc8CO[C@@H]7C7CCCCC7)cc6)CC5)CC4)ccc3C2=O)C(=O)N1 [Compound I-34, (S)-3-(5-(4-((1-(4-((3R,4R)-3-cyclohexyl-7-hydroxyisochroman-4-yl)phenyl)piperidin-4-yl)methyl)piperazin-1-yl)-1-oxoisoindolin-2-yl)piperidine-2,6-dione] | 0.49
9 | O=C1CC[C@H](N2Cc3cc(N4CCN(CC5CCN(c6ccc([C@@H]7c8ccc(O)cc8CO[C@@H]7c7ccc(F)cc7)cc6)CC5)CC4)ccc3C2=O)C(=O)N1 [Compound I-35, (S)-3-(5-(4-((1-(4-((3S,4R)-3-(4-fluorophenyl)-7-hydroxyisochroman-4-yl)phenyl)piperidin-4-yl)methyl)piperazin-1-yl)-1-oxoisoindolin-2-yl)piperidine-2,6-dione] | 0.3
10 | O=C1CCC(c2ccc(N3CCN(CC4CCN(c5ccc([C@@H]6c7ccc(O)cc7CC[C@@H]6c6ccccc6)cc5)CC4)CC3)cc2)C(=O)N1 (stereo partly drawn) [Compound I-39, 3-[4-[4-[[1-[4-[(1R,2S)-6-hydroxy-2-phenyl-tetralin-1-yl]phenyl]-4-piperidyl]methyl]piperazin-1-yl]phenyl]piperidine-2,6-dione] | 469
11 | O=C1CC[C@H](N2Cc3cc(N4CCN(CC5CCN(c6ccc([C@@H]7c8ccc(B(O)O)cc8CC[C@@H]7c7ccccc7)cc6)CC5)CC4)ccc3C2=O)C(=O)N1 [Compound I-45, ((5R,6S)-5-(4-(4-((4-(2-((S)-2,6-dioxopiperidin-3-yl)-1-oxoisoindolin-5-yl)piperazin-1-yl)methyl)piperidin-1-yl)phenyl)-6-phenyl-5,6,7,8-tetrahydronaphthalen-2-yl)boronic acid] | 3

Source: patent publication US20250388565A1, “ESTROGEN RECEPTOR ALPHA DEGRADERS AND METHODS OF USE THEREOF” (Relay Therapeutics, Inc., priority 2022, published 2025)
